Assays:
[1] = biological target: T1, SfmC (Streptomyces lavendulae, UniProt B0CN27); assay: MS of dual Pictet-Spengler product […]; type: biochemical; conditions: 1 mM substrate, 0.5 mM myristoyl-Ala-glycinaldehyde, 1 mM ATP, MgCl2, MnCl2, NADH, HEPES pH 7.0, 30 C, 2 h
T1 construct: NRPS

[2] = biological target: T2, NapW (Streptomyces lusitanus, UniProt S4TKM8); assay: X-ray crystal structure (co-crystallisation); type: binding; conditions: co-crystallised with 5 mM NADPH; modelled as NADP+; Rossmann fold site
T2 construct: recombinant in E. coli BL21(DE3), His-tagged, Ni-NTA (pET-28a or pET-37b)
T2 sequence (S4TKM8 entry or part of it): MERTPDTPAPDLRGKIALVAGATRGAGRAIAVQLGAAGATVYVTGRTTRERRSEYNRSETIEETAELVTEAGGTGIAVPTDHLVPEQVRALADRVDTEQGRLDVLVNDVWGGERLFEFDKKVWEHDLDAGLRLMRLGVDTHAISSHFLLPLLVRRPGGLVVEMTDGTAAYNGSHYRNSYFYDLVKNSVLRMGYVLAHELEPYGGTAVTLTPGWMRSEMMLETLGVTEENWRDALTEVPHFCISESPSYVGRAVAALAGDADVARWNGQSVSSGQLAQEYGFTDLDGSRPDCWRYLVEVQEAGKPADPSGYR

[3] = system: T3, SDR-Rm (Rhizobium mesoamericanum); assay: HPLC of reduction to […]; type: biochemical; conditions: […] ET-[…] NADPH, Tris-HCl pH […] C, […] h
T3 construct: recombinant in E. coli BL21(DE3), His-tagged
T3 sequence (Z9SGJ4VC86 1-304): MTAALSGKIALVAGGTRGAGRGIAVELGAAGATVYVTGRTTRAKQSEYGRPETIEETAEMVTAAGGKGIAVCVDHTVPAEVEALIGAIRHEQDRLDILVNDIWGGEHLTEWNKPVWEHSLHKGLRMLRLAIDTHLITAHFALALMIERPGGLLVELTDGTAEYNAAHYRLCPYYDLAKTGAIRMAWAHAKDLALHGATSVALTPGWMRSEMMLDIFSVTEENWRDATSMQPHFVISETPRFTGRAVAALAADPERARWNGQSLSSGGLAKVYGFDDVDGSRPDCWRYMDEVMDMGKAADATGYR

[4] = biological target: T4, homW (Streptomyces lusitanus, UniProt A0A896A0X3); assay: HPLC and MS of reduction to […]; type: biochemical; conditions: […] ET-[…] NADPH, Tris-HCl pH […] C, […] h
T4 sequence (A0A896A0X3 1-304): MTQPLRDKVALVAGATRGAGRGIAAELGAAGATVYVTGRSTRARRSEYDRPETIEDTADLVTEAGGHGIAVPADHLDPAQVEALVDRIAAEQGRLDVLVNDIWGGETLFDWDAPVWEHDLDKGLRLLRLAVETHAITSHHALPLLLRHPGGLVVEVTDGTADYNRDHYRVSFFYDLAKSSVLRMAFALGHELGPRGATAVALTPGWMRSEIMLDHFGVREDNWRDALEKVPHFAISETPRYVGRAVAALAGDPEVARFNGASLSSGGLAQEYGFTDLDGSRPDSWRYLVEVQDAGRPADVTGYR

[5] = biological target: T5, homO1b (Streptomyces lavendulae, UniProt A0A896A5A8); assay: HPLC and MS of reduction to […]; type: biochemical; conditions: […] ET-[…] NADPH, Tris-HCl pH […] C, […] h
T5 sequence (A0A896A5A8 1-308): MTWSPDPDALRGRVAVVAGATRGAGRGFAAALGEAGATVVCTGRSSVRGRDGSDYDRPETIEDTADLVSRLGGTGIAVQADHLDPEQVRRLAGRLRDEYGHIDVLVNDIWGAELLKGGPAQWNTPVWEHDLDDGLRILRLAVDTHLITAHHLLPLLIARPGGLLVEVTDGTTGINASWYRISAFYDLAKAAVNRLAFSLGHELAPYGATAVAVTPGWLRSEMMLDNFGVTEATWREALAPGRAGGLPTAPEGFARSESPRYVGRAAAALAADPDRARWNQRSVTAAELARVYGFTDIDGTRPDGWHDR

[6] = biological target: T6, SDR-Mb (Myxococcales bacterium, UniProt A0A1M3NHK2); assay: HPLC of reduction to […]; type: biochemical; conditions: […] ET-[…] NADPH, Tris-HCl pH […] C, […] h
T6 construct: recombinant in E. coli BL21(DE3), His-tagged
T6 sequence (A0A1M3NHK2 1-336): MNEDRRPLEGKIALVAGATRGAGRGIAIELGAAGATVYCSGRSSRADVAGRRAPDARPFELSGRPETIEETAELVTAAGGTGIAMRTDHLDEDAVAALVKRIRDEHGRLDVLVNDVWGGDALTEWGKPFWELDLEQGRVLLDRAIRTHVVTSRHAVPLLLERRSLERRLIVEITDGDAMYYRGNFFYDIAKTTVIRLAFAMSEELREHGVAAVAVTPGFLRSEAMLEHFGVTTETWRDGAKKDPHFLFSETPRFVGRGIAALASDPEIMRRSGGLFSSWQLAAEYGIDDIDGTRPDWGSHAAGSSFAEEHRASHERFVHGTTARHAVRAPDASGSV

[7] = biological target: T7, homO1a (Streptomyces lavendulae, UniProt A0A895ZRD1); assay: HPLC and MS of reduction to […]; type: biochemical; conditions: […] ET-[…] NADPH, Tris-HCl pH […] C, […] h
T7 sequence (A0A895ZRD1 1-325): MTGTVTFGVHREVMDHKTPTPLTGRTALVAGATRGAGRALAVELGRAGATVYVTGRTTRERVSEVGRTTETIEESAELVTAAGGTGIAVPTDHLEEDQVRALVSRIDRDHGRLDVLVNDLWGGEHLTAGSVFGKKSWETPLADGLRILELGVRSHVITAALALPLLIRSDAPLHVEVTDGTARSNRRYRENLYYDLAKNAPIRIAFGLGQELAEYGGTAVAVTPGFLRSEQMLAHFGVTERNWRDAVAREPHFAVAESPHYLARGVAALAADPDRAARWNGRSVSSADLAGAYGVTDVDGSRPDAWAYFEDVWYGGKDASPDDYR

[8] = biological target: T2, NapW; assay: HPLC and MS of reduction to […]; type: biochemical; conditions: 290 uM ET-743, 1 mM NADPH, Tris-HCl pH 8.0, 30 C, 8 h
[9] = biological target: T8, SDR-Pb (Paenibacillus rhizosphaerae, UniProt A0A1R1EZ79); assay: HPLC of reduction to […]; type: biochemical; conditions: 290 uM ET-743, 1 mM NADPH, Tris-HCl pH 8.0, 30 C, 8 h
T8 construct: gene BK138_00365; recombinant in E. coli BL21(DE3), His-tagged
T8 sequence (A0A1R1EZ79 entry or part of it): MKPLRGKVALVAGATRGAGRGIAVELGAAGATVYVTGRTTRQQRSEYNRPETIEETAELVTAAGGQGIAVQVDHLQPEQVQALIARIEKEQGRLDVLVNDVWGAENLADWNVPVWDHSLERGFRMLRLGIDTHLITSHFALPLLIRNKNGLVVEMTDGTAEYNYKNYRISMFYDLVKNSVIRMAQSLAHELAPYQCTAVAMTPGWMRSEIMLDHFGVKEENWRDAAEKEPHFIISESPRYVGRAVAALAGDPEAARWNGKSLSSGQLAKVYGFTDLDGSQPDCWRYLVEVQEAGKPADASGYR

[10] = biological target: SfmO1 (Streptomyces lavendulae, UniProt B0CN12); assay: HPLC and MS of reduction to […]; type: biochemical; conditions: 290 uM ET-743, 1 mM NADPH, Tris-HCl pH 8.0, 30 C, 8 h
SfmO1, sequence (B0CN12 entry or part of it): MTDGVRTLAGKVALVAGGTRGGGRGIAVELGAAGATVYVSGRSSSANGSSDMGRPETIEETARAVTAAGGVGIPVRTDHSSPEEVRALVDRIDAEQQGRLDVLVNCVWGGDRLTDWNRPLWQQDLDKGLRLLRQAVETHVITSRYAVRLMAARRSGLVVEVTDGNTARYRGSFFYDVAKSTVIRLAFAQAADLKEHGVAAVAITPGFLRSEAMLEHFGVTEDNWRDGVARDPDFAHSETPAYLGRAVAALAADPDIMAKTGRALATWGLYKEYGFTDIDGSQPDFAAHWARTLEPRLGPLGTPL

[11] = biological target: T9, SDR-Cs (Chlorella sorokiniana, UniProt A0A2P6TRY4); assay: HPLC of reduction to […]; type: biochemical; conditions: 290 uM ET-743, 1 mM NADPH, Tris-HCl pH 8.0, 30 C, 8 h
T9 construct: gene C2E21_4667; recombinant in E. coli BL21(DE3), His-tagged
T9 sequence (A0A2P6TRY4 entry or part of it): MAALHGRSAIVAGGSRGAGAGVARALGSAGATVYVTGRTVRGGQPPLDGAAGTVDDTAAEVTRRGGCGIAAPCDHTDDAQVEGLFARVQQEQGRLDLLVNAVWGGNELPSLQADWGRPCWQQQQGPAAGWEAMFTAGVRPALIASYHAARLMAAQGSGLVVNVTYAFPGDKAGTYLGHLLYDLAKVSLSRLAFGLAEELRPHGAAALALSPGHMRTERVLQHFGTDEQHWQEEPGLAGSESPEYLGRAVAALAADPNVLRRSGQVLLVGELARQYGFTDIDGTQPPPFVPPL

T1 sequence (B0CN27 entry or part of it): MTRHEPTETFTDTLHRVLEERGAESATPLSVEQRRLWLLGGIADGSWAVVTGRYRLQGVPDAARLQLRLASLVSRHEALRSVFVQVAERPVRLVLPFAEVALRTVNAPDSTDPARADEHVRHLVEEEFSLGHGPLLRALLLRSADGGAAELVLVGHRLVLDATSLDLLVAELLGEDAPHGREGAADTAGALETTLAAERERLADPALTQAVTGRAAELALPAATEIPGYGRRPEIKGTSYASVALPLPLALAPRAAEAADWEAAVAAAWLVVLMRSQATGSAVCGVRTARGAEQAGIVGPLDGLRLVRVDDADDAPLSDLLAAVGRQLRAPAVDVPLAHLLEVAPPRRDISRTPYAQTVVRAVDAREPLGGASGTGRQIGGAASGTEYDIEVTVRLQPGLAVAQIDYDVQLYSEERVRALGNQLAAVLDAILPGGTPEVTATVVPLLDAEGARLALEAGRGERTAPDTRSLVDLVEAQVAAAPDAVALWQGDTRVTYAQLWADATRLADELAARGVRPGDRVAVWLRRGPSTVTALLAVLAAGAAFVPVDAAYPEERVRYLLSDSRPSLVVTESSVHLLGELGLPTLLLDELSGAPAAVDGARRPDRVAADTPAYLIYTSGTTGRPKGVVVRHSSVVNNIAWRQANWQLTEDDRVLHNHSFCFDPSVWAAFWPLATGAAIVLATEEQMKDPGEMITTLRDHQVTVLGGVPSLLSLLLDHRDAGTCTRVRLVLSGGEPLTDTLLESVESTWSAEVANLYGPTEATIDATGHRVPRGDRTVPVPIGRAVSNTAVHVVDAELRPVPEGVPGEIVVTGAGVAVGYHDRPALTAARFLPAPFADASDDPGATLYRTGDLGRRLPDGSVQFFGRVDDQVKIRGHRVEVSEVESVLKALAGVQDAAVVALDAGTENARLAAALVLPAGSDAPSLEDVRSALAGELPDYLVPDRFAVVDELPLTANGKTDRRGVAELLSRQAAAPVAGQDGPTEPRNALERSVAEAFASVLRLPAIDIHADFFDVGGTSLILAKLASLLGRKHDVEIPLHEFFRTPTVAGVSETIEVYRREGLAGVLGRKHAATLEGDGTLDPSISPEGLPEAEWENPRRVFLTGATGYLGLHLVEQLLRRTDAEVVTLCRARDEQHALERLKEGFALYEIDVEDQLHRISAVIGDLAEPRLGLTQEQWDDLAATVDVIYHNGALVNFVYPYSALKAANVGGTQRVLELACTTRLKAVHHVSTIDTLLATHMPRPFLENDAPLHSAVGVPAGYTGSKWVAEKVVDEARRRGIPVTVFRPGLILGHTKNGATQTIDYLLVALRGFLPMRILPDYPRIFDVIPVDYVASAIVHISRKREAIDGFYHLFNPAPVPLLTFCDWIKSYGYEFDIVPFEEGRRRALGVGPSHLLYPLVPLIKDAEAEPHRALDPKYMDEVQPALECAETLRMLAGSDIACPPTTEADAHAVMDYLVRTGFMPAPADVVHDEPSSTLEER

For `COc1c(C)cc(C[C@H](N)C(=O)O)cc1O` [3-OH-5-Me-O-Me-Tyr], the “MS of dual Pictet-Spengler product 16” value [1] was “Dual Pictet-Spengler reactions catalyzed SfmC”.
`NC(=O)c1ccc[n+]([C@@H]2O[C@H](COP(=O)(O)OP(=O)(O)OC[C@H]3O[C@@H](n4cnc5c(N)ncnc54)[C@H](OP(=O)(O)O)[C@@H]3O)[C@@H](O)[C@H]2O)c1` [NADP^+] was tested, and the “X-ray crystal structure (co-crystallisation)” value [2] was “We further obtained the structure of NapW·NADP^+ binary complex by co-crystallizing NapW, NADP(H)”.
`COc1cc2c(cc1O)CCN[C@]21CS[C@@H]2c3c(OC(C)=O)c(C)c4c(c3[C@H](COC1=O)N1[C@@H]2[C@H]2c3c(cc(C)c(OC)c3O)C[C@@H]([C@@H]1O)N2C)OCO4` [compound 7, ET-743] was tested, and the “HPLC of reduction to 8” value [3] was “most proteins can catalyze reductive reaction of THIQ compounds except that SDR-Li and SDR-Ss”, the “HPLC and MS of reduction to 8” value [4] was “each of the five SDRs originated from NDM or SFM-A producer could effectively catalyze” and the “HPLC and MS of reduction to 8” value [5] was “each of the five SDRs originated from NDM or SFM-A producer could effectively catalyze”. The “HPLC of reduction to 8” value [6] was “most proteins can catalyze reductive reaction of THIQ compounds except that SDR-Li and SDR-Ss”, the “HPLC and MS of reduction to 8” value [7] was “each of the five SDRs originated from NDM or SFM-A producer could effectively catalyze” and the “HPLC and MS of reduction to 8” value [8] was “each of the five SDRs originated from NDM or SFM-A producer could effectively catalyze”. For the same compound, the “HPLC of reduction to 8” value [9] was “most proteins can catalyze reductive reaction of THIQ compounds except that SDR-Li and SDR-Ss”, the “HPLC and MS of reduction to 8” value [10] was “each of the five SDRs originated from NDM or SFM-A producer could effectively catalyze” and the “HPLC of reduction to 8” value [11] was “most proteins can catalyze reductive reaction of THIQ compounds except that SDR-Li and SDR-Ss”.
